{
  "source": "patent US20250382344A1",
  "about": "“Soluble GLP1/GIP/NPY2 Receptor Triple Agonists” (Boehringer Ingelheim International GmH, priority 2024, published 2025)",
  "key": {"hGIPR": {"biological_target": "T1, hGIPR (Homo sapiens, UniProt P48546)", "T1 construct": "expressed in transfected cells; host or cells: CHO CRE-luciferase reporter cells", "T1 sequence (P48546 22-466)": "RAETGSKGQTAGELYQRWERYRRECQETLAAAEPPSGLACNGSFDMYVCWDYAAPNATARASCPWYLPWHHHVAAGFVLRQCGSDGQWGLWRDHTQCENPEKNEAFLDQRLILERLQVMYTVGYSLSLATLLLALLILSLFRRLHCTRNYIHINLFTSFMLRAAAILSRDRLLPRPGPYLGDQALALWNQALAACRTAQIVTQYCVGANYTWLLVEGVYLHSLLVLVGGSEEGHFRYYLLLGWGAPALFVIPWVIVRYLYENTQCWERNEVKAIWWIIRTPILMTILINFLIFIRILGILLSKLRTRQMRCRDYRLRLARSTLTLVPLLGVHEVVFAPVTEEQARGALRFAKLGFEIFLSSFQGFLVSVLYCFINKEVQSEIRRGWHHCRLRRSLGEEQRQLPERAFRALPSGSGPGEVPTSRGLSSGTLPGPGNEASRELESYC", "assay": "hGIPR CreLuc assay in 0.5% and 100% plasma (CHO CRE-luciferase reporter cells)", "assay_type": "cell-based", "conditions": "0.5% human plasma, read-out: hGIPR 0.5% hP"}, "hNPY2R": {"biological_target": "T2, hNPY2R (Homo sapiens, UniProt P49146)", "T2 construct": "expressed in transfected cells; host or cells: HEK-293 CRE-luciferase reporter cells", "T2 sequence (P49146 1-381)": "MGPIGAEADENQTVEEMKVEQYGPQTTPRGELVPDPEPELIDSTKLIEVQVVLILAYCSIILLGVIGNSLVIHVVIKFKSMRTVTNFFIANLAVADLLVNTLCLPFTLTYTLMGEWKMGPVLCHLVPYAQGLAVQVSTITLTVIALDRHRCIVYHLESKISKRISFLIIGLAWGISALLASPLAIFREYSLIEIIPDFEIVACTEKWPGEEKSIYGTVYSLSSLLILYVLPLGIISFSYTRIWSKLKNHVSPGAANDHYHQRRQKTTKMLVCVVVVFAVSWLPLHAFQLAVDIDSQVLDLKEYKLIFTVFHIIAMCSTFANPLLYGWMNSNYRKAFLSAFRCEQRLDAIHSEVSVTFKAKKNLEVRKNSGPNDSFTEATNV", "assay": "hNPY2R CreLuc assay in 0.5% and 100% plasma (HEK-293 CRE-luciferase reporter cells)", "assay_type": "cell-based", "conditions": "HEK-293 reporter cells", "text": "CHO and HEK-293 recombinant cell lines express a luciferase reporter gene under control of the CAMP responsive element (CRE). As a second recombinant protein the GLP-1 and NPY2 receptors were expressed in the reporter gene HEK cells, and the GIP receptor was expressed in the reporter gene CHO cells, respectively. Stimulation of these recombinant cells with an agonist leads to an increase of intracellular CAMP levels. In the presence of CAMP, the transcription factor CRE binding protein (CREB) binds to the CRE and to the CREB binding protein (CBP), which leads to transcription of the luciferase reporter gene. Peptides upon serial-dilution in 100% DMSO were transferred into 384-well assay plates with 5 μl pre-dispensed assay buffer (1×HBSS, 20 mM HEPES, pH7.4 supplemented with 0.5% human plasma) using acoustic dispensing on a Labcyte ECHO. Cryo-preserved transgenic reporter gene cells were thawed in assay buffer. 20 μl (10.000 cells/well) were added to the plate with the peptides and incubated for 4 hours at 37° C. in a humidified incubator. Following incubation, assay plates are equilibrated to room temperature, followed by addition of 25 μl of Bright-Glo™ Luciferase reagent, incubation at room temperature for 10 minutes and analysis of luminescence (Envision Reader). […] EC50 values were calculated by non-linear regression using sigmoid concentration-response with variable slope.\nThe same assays were run in the presence of 100% plasma with no additional buffer constituents."}, "[1]": {"assay": "Solubility in 0.1 M phosphate buffer at pH 7", "assay_type": "physicochemical", "conditions": "0.1 M phosphate buffer at pH 7, 10 mg/mL final peptide concentration, shaking 2 hours at room temperature, peptides as TFA-salts; measured sample pH 6.5-7.0"}, "[2]": {"conditions": "100% human plasma, read-out: hNPY2R 100% hP"}, "[3]": {"conditions": "0.5% human plasma, read-out: hNPY2R 0.5% hP"}},
  "note": "Where two headings read alike, the source gives them in different places.",
  "data": [
    {"molecule": "CC[C@H](C)[C@H](NC(=O)[C@H](CC(C)C)NC(=O)[C@H](Cc1c[nH]cn1)NC(=O)[C@H](CCCNC(=N)N)NC(=O)[C@@H](NC(=O)[C@H](Cc1ccccc1)NC(=O)[C@H](C)NC(=O)C(C)(C)NC(=O)[C@H](CCC(N)=O)NC(=O)[C@H](C)NC(=O)[C@H](CCC(N)=O)NC(=O)[C@H](CCCCN)NC(=O)[C@H](CCC(=O)O)NC(=O)[C@H](CC(C)C)NC(=O)C(C)(C)NC(=O)[C@@H](NC(=O)[C@H](CO)NC(=O)[C@H](Cc1ccc(O)cc1)NC(=O)[C@H](CC(=O)O)NC(=O)[C@H](CO)NC(=O)[C@@H](NC(=O)[C@H](Cc1ccccc1)NC(=O)[C@@H](NC(=O)CNC(=O)[C@H](CCC(=O)O)NC(=O)C(C)(C)NC(=O)[C@@H](N)Cc1ccc(O)cc1)[C@@H](C)O)[C@@H](C)O)[C@@H](C)CC)C(C)C)C(=O)N[C@@H](CC(N)=O)C(=O)N[C@@H](CCCCNC(=O)CC[C@H](NC(=O)CC[C@H](NC(=O)CC[C@H](NC(=O)CC[C@H](NC(=O)CC[C@H](NC(=O)CC[C@H](NC(=O)CC[C@H](NC(=O)CCCCCCCCCCCCCCCCC(=O)O)C(=O)O)C(=O)O)C(=O)O)C(=O)O)C(=O)O)C(=O)O)C(=O)O)C(=O)NC(C)(C)C(=O)N[C@H](C(=O)N[C@@H](CCCNC(=N)N)C(=O)N[C@@H](CCC(N)=O)C(=O)N[C@@H](CCCNC(=N)N)C(=O)N[C@@H](Cc1ccc(O)cc1)C(N)=O)[C@@H](C)O", "note": "[Compound 38, Y-Aib-E-G-T-F-T-S-D-Y-S-I-Aib-L-E-K-Q-A-Q-Aib-A-F-V-R-H-L-I-N-K(1,3)-Aib-T-R-Q-R-Y-NH2.C18DA-gGlu-gGlu-gGlu-gGlu-gGlu-gGlu-gGlu(1,2)]", "values": [
      {"measurement": "EC50", "setting": "hGIPR", "value": 0.6, "unit": "nM"},
      {"measurement": "EC50", "setting": "hNPY2R; [2]", "value": 141, "unit": "nM"},
      {"measurement": "solubility at 2 h", "setting": "[1]", "value": 4300, "unit": "µg/mL"}
    ]},
    {"molecule": "CC[C@H](C)[C@H](NC(=O)[C@H](CC(C)C)NC(=O)[C@H](Cc1c[nH]cn1)NC(=O)[C@H](CCCNC(=N)N)NC(=O)[C@@H](NC(=O)[C@H](Cc1ccccc1)NC(=O)[C@H](C)NC(=O)[C@H](CCC(=O)O)NC(=O)[C@H](CCC(N)=O)NC(=O)[C@H](C)NC(=O)[C@H](CCC(N)=O)NC(=O)[C@H](CCCCN)NC(=O)[C@H](CCC(=O)O)NC(=O)[C@H](CC(C)C)NC(=O)C(C)(C)NC(=O)[C@@H](NC(=O)[C@H](CO)NC(=O)[C@H](Cc1ccc(O)cc1)NC(=O)[C@H](CC(=O)O)NC(=O)[C@H](CO)NC(=O)[C@@H](NC(=O)[C@H](Cc1ccccc1)NC(=O)[C@@H](NC(=O)CNC(=O)[C@H](CCC(=O)O)NC(=O)C(C)(C)NC(=O)[C@@H](N)Cc1ccc(O)cc1)[C@@H](C)O)[C@@H](C)O)[C@@H](C)CC)C(C)C)C(=O)N[C@@H](CC(N)=O)C(=O)N[C@@H](CCCCNC(=O)[C@@H](N)CCCCNC(=O)CC[C@H](NC(=O)CC[C@H](NC(=O)CC[C@H](NC(=O)CC[C@H](NC(=O)CC[C@H](NC(=O)CC[C@H](NC(=O)CCCCCCCCCCCCCCCCC(=O)O)C(=O)O)C(=O)O)C(=O)O)C(=O)O)C(=O)O)C(=O)O)C(=O)NC(C)(C)C(=O)N[C@H](C(=O)N[C@@H](CCCNC(=N)N)C(=O)N[C@@H](CCC(N)=O)C(=O)N[C@@H](CCCNC(=N)N)C(=O)N[C@@H](Cc1ccc(O)cc1)C(N)=O)[C@@H](C)O", "note": "[Compound 170, Y-Aib-E-G-T-F-T-S-D-Y-S-I-Aib-L-E-K-Q-A-Q-E-A-F-V-R-H-L-I-N-K(1,3)-Aib-T-R-Q-R-Y-NH2.C18DA-gGlu-gGlu-gGlu-gGlu-gGlu-gGlu-eLys(1,2)]", "values": [
      {"measurement": "EC50", "setting": "hGIPR", "value": 0.4, "unit": "nM"},
      {"measurement": "EC50", "setting": "hNPY2R; [3]", "value": 43.8, "unit": "nM"},
      {"measurement": "solubility at 2 h", "setting": "[1]", "value": 4600, "unit": "µg/mL"}
    ]},
    {"molecule": "CC[C@H](C)[C@H](NC(=O)[C@H](CC(C)C)NC(=O)[C@H](Cc1c[nH]cn1)NC(=O)[C@H](CCCNC(=N)N)NC(=O)[C@@H](NC(=O)[C@H](Cc1ccccc1)NC(=O)[C@H](CCC(=O)O)NC(=O)C(C)(C)NC(=O)[C@H](CCC(N)=O)NC(=O)[C@H](C)NC(=O)[C@H](CCC(N)=O)NC(=O)[C@H](CCCCN)NC(=O)[C@H](CCC(=O)O)NC(=O)[C@H](CC(C)C)NC(=O)C(C)(C)NC(=O)[C@@H](NC(=O)[C@H](CO)NC(=O)[C@H](Cc1ccc(O)cc1)NC(=O)[C@H](CC(=O)O)NC(=O)[C@H](CO)NC(=O)[C@@H](NC(=O)[C@H](Cc1ccccc1)NC(=O)[C@@H](NC(=O)CNC(=O)[C@H](CCC(=O)O)NC(=O)C(C)(C)NC(=O)[C@@H](N)Cc1ccc(O)cc1)[C@@H](C)O)[C@@H](C)O)[C@@H](C)CC)C(C)C)C(=O)N[C@@H](CC(N)=O)C(=O)N[C@@H](CCCCNC(=O)[C@@H](N)CCCCNC(=O)[C@H](CCC(=O)O)NC(=O)CC[C@H](NC(=O)CC[C@H](NC(=O)CC[C@H](NC(=O)CC[C@H](NC(=O)CC[C@H](NC(=O)CC[C@H](NC(=O)CCCCCCCCCCCCCCCCC(=O)O)C(=O)O)C(=O)O)C(=O)O)C(=O)O)C(=O)O)C(=O)O)C(=O)N[C@@H](CC(C)C)C(=O)N[C@H](C(=O)N[C@@H](CCCNC(=N)N)C(=O)N[C@@H](CCC(N)=O)C(=O)N[C@@H](CCCNC(=N)N)C(=O)N[C@@H](Cc1ccc(O)cc1)C(N)=O)[C@@H](C)O", "note": "[Compound 32, Y-Aib-E-G-T-F-T-S-D-Y-S-I-Aib-L-E-K-Q-A-Q-Aib-E-F-V-R-H-L-I-N-K(1,3)-L-T-R-Q-R-Y-NH2.C18DA-gGlu-gGlu-gGlu-gGlu-gGlu-gGlu-Glu-eLys(1,2)]", "values": [
      {"measurement": "EC50", "setting": "hGIPR", "value": 0.5, "unit": "nM"},
      {"measurement": "EC50", "setting": "hNPY2R; [3]", "value": 17.1, "unit": "nM"},
      {"measurement": "solubility at 2 h", "setting": "[1]", "value": 9100, "unit": "µg/mL"}
    ]},
    {"molecule": "CC[C@H](C)[C@H](NC(=O)[C@H](CC(C)C)NC(=O)[C@H](Cc1c[nH]cn1)NC(=O)[C@H](CCCNC(=N)N)NC(=O)[C@@H](NC(=O)[C@H](Cc1ccccc1)NC(=O)[C@H](C)NC(=O)C(C)(C)NC(=O)[C@H](CCC(N)=O)NC(=O)[C@H](C)NC(=O)[C@H](CCC(N)=O)NC(=O)[C@H](CCCCN)NC(=O)[C@H](CCC(=O)O)NC(=O)[C@H](CC(C)C)NC(=O)C(C)(C)NC(=O)[C@@H](NC(=O)[C@H](CO)NC(=O)[C@H](Cc1ccc(O)cc1)NC(=O)[C@H](CC(=O)O)NC(=O)[C@H](CO)NC(=O)[C@@H](NC(=O)[C@H](Cc1ccccc1)NC(=O)[C@@H](NC(=O)CNC(=O)[C@H](CCC(=O)O)NC(=O)C(C)(C)NC(=O)[C@@H](N)Cc1ccc(O)cc1)[C@@H](C)O)[C@@H](C)O)[C@@H](C)CC)C(C)C)C(=O)N[C@@H](CC(N)=O)C(=O)N[C@@H](CCCCNC(=O)COCCOCCNC(=O)CC[C@H](NC(=O)CC[C@H](NC(=O)CC[C@H](NC(=O)CC[C@H](NC(=O)CC[C@H](NC(=O)CC[C@H](NC(=O)CCCCCCCCCCCCCCCCCCC(=O)O)C(=O)O)C(=O)O)C(=O)O)C(=O)O)C(=O)O)C(=O)O)C(=O)NC(C)(C)C(=O)N[C@H](C(=O)N[C@@H](CCCNC(=N)N)C(=O)N[C@@H](CCC(N)=O)C(=O)N[C@@H](CCCNC(=N)N)C(=O)N[C@@H](Cc1ccc(O)cc1)C(N)=O)[C@@H](C)O", "note": "[Compound 99, Y-Aib-E-G-T-F-T-S-D-Y-S-I-Aib-L-E-K-Q-A-Q-Aib-A-F-V-R-H-L-I-N-K(1,3)-Aib-T-R-Q-R-Y-NH2.C20DA-gGlu-gGlu-gGlu-gGlu-gGlu-gGlu-OEG(1,2)]", "values": [
      {"measurement": "EC50", "setting": "hGIPR", "value": 0.5, "unit": "nM"},
      {"measurement": "EC50", "setting": "hNPY2R; [2]", "value": 125, "unit": "nM"},
      {"measurement": "solubility at 2 h", "setting": "[1]", "value": 10000, "unit": "µg/mL"}
    ]}
  ]
}
